# Laboratory results as given in ChEMBL document CHEMBL6182942, “Discovery of a Selective, Novel TGF-βR1 Inhibitor GFH018 for the Treatment of Solid Tumors” (J Med Chem, 2025).
# pIC50: −log10 of the molar value.
# Experiments:
# [1] = species on record: Homo sapiens; assay: Selectivity ratio of IC50 for p38alpha (unknown origin) to IC50 for TGFbetaR1 (unknown origin)
# [2] = target: T1, TGF-beta receptor type-1 (Homo sapiens, UniProt P36897); assay: Inhibition of TGFbetaR1 (unknown origin) in presence of ATP
# T1 sequence (P36897 whole entry): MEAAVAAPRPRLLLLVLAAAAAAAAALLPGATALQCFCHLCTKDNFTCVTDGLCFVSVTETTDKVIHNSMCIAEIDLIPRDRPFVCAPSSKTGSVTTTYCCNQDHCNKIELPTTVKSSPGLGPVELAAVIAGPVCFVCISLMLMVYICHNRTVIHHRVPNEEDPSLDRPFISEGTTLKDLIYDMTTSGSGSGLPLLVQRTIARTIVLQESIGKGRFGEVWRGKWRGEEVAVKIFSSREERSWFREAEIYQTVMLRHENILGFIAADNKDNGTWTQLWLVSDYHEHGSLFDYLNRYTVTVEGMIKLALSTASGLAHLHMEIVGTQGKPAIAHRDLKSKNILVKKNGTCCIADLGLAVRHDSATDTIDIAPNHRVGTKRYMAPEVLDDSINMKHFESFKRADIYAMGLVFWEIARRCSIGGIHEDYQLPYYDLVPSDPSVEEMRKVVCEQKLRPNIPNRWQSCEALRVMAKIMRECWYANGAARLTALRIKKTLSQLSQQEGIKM
# [3] = target: Mitogen-activated protein kinase 14 (Homo sapiens, UniProt Q16539); assay: Inhibition of p38alpha (unknown origin) measured after 40 mins in presence of [gamma-33P]ATP by microbeta liquid scintillation counting analysis; assay type: toxicity
# [4] = Metabolic stability in mouse liver microsomes assessed as parent compound remaining at 1 uM preincubated for 5 mins followed by NADPH addition by LC-MS/MS analysis; assay type: ADME, Microsome; conditions: read-out: Stability
# [5] = Metabolic stability in human liver microsomes assessed as parent compound remaining at 1 uM preincubated for 5 mins followed by NADPH addition by LC-MS/MS analysis; assay type: ADME, Microsome; conditions: read-out: Stability
# [6] = Apparent permeability across apical to basolateral side in dog MDCK-MDR1 cells at 2 uM measured over 150 mins by LC-MS/MS analysis; assay type: ADME, cell-based, Canis lupus familiaris
# [7] = system: MDR1; assay: Efflux ratio of apparent permeability in dog MDCK-MDR1 cells at 2 uM measured over 150 mins by LC-MS/MS analysis; assay type: ADME, cell-based, Canis lupus familiaris
# [8] = system: NIH3T3; assay: Antiproliferative activity against mouse NIH/3T3 cells by celltitter-glo assay; assay type: functional, cell-based
# [9] = Cmax in CD-1 mouse at 5 mg/kg, po via gavage by LC-MS/MS analysis; assay type: ADME, organism-based; conditions: in vivo
# [10] = Oral bioavailability in CD-1 mouse at 5 mg/kg via gavage by LC-MS/MS analysis; assay type: ADME, organism-based; conditions: in vivo
# [11] = Clearance in CD-1 mouse at 1 mg/kg, iv by LC-MS/MS analysis; assay type: ADME, organism-based; conditions: in vivo
# [12] = Half life in CD-1 mouse at 1 mg/kg, iv by LC-MS/MS analysis; assay type: ADME, organism-based; conditions: in vivo
# [13] = Half life in CD-1 mouse at 5 mg/kg, po via gavage by LC-MS/MS analysis; assay type: ADME, organism-based; conditions: in vivo
# [14] = Volume of distribution at steady state in CD-1 mouse at 1 mg/kg, iv by LC-MS/MS analysis; assay type: ADME, organism-based; conditions: in vivo, read-out: Vdss
# [15] = AUC (0 to last) in CD-1 mouse at 5 mg/kg, po via gavage by LC-MS/MS analysis; assay type: ADME, organism-based; conditions: in vivo
# Sequence of Mitogen-activated protein kinase 14 (Q16539 whole entry): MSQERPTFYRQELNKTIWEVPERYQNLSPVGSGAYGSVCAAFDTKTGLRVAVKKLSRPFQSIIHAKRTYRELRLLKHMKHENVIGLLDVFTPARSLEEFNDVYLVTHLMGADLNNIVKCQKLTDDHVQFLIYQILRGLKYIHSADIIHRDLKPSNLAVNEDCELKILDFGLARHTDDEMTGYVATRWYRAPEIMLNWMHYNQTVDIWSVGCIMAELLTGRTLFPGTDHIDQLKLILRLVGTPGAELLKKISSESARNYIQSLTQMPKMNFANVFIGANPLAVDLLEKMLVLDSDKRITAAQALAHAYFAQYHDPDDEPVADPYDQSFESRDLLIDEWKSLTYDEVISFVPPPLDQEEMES
SMILES,Ratio IC50 [1],pIC50 [2],pIC50 [3],also measured
Cc1cccc(-c2nn3c(c2-c2ccc4ncnn4c2/C=C/C(=O)NO)CCC3)n1,> 80,7.39,< 5.48,"remaining at 1 µM [4]: 41.6%; remaining at 1 µM [5]: 42.5%; Papp A→B at 2.5 h, 2 µM [6]: 0.15 ×10⁻⁶ cm/s; efflux ratio at 2.5 h, 2 µM [7]: 43.4"
Cc1cccc(-c2nn3c(c2-c2ccc4nccn4c2/C=C/C(N)=O)CCC3)n1,,5.99,,
Cc1cccc(-c2nn3c(c2-c2cn(C)c(=O)c4ccc(C(N)=O)cc24)CCC3)n1,,< 5.30,,
CCOC(=O)/C=C/c1c(-c2c(-c3cccc(C)n3)nn3c2CCC3)ccc2ncnn12,,6.49,5.23,"Papp A→B at 2.5 h, 2 µM [6]: 19.4 ×10⁻⁶ cm/s"
Cc1cccc(-c2nn3c(c2-c2ccnc4ccc(C(N)=O)cc24)CCC3)n1 [GALUNISERTIB],,,6.11,
Cc1cccc(-c2nn(Cc3cccc(C#N)c3)cc2-c2ccc3ncnn3c2C=CC(N)=O)n1,,6.65,< 5.48,remaining at 1 µM [4]: 9.8%; remaining at 1 µM [5]: 56.2%; pIC50 [8]: 5.78
Cc1cccc(-c2nn3c(c2-c2ccc4ncsc4c2/C=C/C(N)=O)CCC3)n1,2.3,6.68,6.32,
Cc1nc(-c2nn3c(c2-c2ccc4ncnn4c2/C=C/C(N)=O)CCC3)ccc1Cl,,5.31,,
Cc1cccc(-c2nn3c(c2-c2ccc4ncnn4c2/C=C/C(=O)O)CCC3)n1,,7.11,,"Papp A→B at 2.5 h, 2 µM [6]: 0.43 ×10⁻⁶ cm/s; efflux ratio at 2.5 h, 2 µM [7]: 1.46"
Cc1cccc(-c2nn3c(c2-c2ccc4ncnn4c2CCC(N)=O)CCC3)n1,,6.03,,
Cc1cccc(-c2nn3c(c2-c2ccnc(Nc4ccc(S(N)(=O)=O)cc4)c2)CCC3)n1,0.2,7.08,7.82,
Cc1cccc(-c2nn3c(c2-c2ccc4ncnn4c2/C=C/C(=O)NC2CC2)CCC3)n1,18.6,6.55,5.28,
Cc1cccc(-c2nn3c(c2-c2ccnc(-c4cccc(C(N)=O)c4)c2)CCC3)n1,,5.46,,
Cc1cccc(-c2nn3c(c2-c2ccc(F)c4c2CN(C(N)=O)CC4)CCC3)n1,,< 5.30,,
Cc1cccc(-c2nn(C3CCCC3)cc2-c2ccc3ncnn3c2/C=C/C(N)=O)n1,,6.56,,
Cc1cccc(-c2nn3c(c2-c2ccc4ncnn4c2CNc2cc[nH]n2)CCC3)n1,> 27.4,6.44,< 5.00,
Cc1cc(C)nc(-c2nn3c(c2-c2ccc4ncnn4c2/C=C/C(N)=O)CCC3)c1,,5.49,,
Cc1cccc(-c2nn3c(c2-c2ccc4ncnn4c2C(N)=O)CCC3)n1,,5.37,,
Cc1cccc(-c2nn3c(c2-c2ccc4ncnn4c2CN2CC(O)C2)CCC3)n1,,< 5.30,,
Cc1cccc(-c2nn3c(c2-c2ccnc(Nc4ccc(C(N)=O)cc4)c2)CCC3)n1,0.3,7.04,7.59,
Cc1cccc(-c2nn3c(c2-c2ccc4ncnn4c2/C=C/C(C)(C)O)CCC3)n1,,7.08,< 5.00,"Cmax [9]: 170 nM/ml; bioavailability [10]: 5.48%; remaining at 1 µM [4]: 7.8%; clearance [11]: 105 mL/min/kg; half-life [12]: 7.74 min; half-life [13]: 50.5 min; remaining at 1 µM [5]: 54.8%; Papp A→B at 2.5 h, 2 µM [6]: 8.48 ×10⁻⁶ cm/s; pIC50 [8]: 5.79; Vd [14]: 0.849 L/kg; AUClast [15]: 104 nM.hr/ml; efflux ratio at 2.5 h, 2 µM [7]: 6.12"
Cc1cccc(-c2nn(C(C)C)cc2-c2ccc3ncnn3c2/C=C/C(N)=O)n1,,6.37,,

# More lines, main results first:
Ratio IC50 [1],pIC50 [2],SMILES,pIC50 [3],also measured
> 40,6.60,Cc1cccc(-c2nn(C)c(C)c2-c2ccc3ncnn3c2/C=C/C(N)=O)n1,< 5.00,
11.6,6.87,Cc1cccc(-c2nn3c(c2-c2ccc4ncnn4c2/C=C/C(N)=O)CCCC3)n1,5.80,
,< 5.30,Cc1cccc(-c2nn3c(c2-c2ccnc(NC4CCN(C(N)=O)CC4)c2)CCC3)n1,,
,6.79,Cc1cccc(-c2nn(Cc3cccc(C(F)F)c3)cc2-c2ccc3ncnn3c2/C=C/C(N)=O)n1,5.69,remaining at 1 µM [4]: 0%; remaining at 1 µM [5]: 9.5%; pIC50 [8]: 6.05
24.6,6.55,Cc1cccc(-c2nn3c(c2-c2ccc4ncnn4c2/C=C/C(=O)NCCO)CCC3)n1,5.16,
,6.01,Cc1cccc(-c2nn3c(c2-c2ccc4ncccc4c2/C=C/C(N)=O)CCC3)n1,,
,< 5.30,Cc1cccc(-c2nn3c(c2-c2ccnc4c2CN(C(N)=O)CC4)CCC3)n1,,
12.8,6.38,CCc1cccc(-c2nn3c(c2-c2ccc4ncnn4c2/C=C/C(N)=O)CCC3)n1,5.27,
15.2,6.51,CCNC(=O)/C=C/c1c(-c2c(-c3cccc(C)n3)nn3c2CCC3)ccc2ncnn12,5.32,
> 13,6.61,CNC(=O)/C=C/c1c(-c2c(-c3cccc(C)n3)nn3c2CCC3)ccc2ncnn12,< 5.48,
,< 5.30,Cc1cccc(-c2nn3c(c2-c2ccc4ncnn4c2CN2CCNC(=O)C2)CCC3)n1,,
